Experimental data reported in patent US20110015162A1, “15,16-Methylene-17-hydroxy-19-nor-21-carboxylic acid-steroid Y-lactone derivative, use thereof and medicinal products containing the derivative” (Bayer Schering Pharma Aktiengesellschaft, priority 2007, published 2011).
Read-outs that look alike come from different tables or passages of the source.

Columns and labels:
[1] = biological target: T1, androgen receptor (Homo sapiens, UniProt P10275); assay: Androgen receptor binding test; set-up: expressed in transfected cells
T1 sequence (P10275 1-920): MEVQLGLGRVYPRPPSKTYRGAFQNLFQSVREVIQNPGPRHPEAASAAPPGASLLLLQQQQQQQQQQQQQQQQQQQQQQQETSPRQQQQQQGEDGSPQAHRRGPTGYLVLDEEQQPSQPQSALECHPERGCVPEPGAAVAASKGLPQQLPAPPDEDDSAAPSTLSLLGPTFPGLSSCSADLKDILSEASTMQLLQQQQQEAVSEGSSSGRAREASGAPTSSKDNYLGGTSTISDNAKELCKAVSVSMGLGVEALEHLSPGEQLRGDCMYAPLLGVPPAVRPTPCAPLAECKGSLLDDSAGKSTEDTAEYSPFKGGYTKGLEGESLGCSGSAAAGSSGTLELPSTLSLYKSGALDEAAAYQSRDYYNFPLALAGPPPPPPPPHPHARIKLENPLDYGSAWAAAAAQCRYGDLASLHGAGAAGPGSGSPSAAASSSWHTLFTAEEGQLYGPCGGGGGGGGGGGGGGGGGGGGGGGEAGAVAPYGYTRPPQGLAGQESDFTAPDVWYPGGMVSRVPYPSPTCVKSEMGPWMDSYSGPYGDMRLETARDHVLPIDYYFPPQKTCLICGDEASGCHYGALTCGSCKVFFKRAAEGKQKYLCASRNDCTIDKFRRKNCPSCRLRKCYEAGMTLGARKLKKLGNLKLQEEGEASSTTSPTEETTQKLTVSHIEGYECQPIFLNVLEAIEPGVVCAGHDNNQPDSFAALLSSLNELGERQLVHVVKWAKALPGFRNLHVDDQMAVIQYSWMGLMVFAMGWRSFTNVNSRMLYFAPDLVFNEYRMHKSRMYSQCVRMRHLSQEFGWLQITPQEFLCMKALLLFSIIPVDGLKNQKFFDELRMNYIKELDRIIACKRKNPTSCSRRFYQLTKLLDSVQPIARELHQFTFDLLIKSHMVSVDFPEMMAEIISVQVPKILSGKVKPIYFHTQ
Protocol: Using cytosol from progesterone receptor-expressing insect cells (Hi5), competitive binding to the progesterone receptor was determined from the ability to displace ^3H-progesterone as reference substance from the receptor.
3. Androgen Receptor Binding Test: […]

[2] = biological target: T1, androgen receptor; assay: Androgen receptor binding test; set-up: expressed in transfected cells; settings: reference substance 3H-testosterone
[3] = biological target: T1, androgen receptor; assay: Androgenic/antiandrogenic action by transactivation test (PC3 reporter cells); assay type: cell-based; set-up: expressed in transfected cells; host or cells: PC3 cells
Protocol: The test compounds were added eight hours later, and the cells were incubated with the compounds for 16 hours. The tests were carried out in triplicate. At the end of incubation the medium containing the effector was removed and replaced with lysis buffer. After luciferase assay substrate (Promega, #E1501) had been added, the 96-well plates were then put in a microplate luminometer (Pherastar, BMG Labtech), and the luminescence was measured. The IC50 values were evaluated using software for calculating dose-effect relations.
6. Determination of Androgenic/Antiandrogenic Action by Means of Transactivation Tests:
The androgenic/antiandrogenic action of the test substances was determined as for the transactivation tests described above.
The following modifications were made: In this case reporter cell lines were used (PC3 cells) that express the androgen receptor, and a reporter construct that contains luciferase under the control of a steroid hormone-responsive promoter.
For determination of the antiandrogenic efficacy, 0.05 nM R1881 was added to the cells, in order to achieve almost maximum stimulation of the reporter gene.

[4] = biological target: T2, mineralocorticoid receptor (Homo sapiens, UniProt P08235); assay: Antimineralocorticoid action by transactivation test (MDCK reporter cells); assay type: cell-based; set-up: expressed in transfected cells; host or cells: MDCK cells; settings: for Emax: MDCK, read-out: Mineralocorticoid receptor Antagonism efficacy;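 on Emax: percent inhibition of the aldosterone-stimulated reporter signal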
T2 sequence (P08235 1-984): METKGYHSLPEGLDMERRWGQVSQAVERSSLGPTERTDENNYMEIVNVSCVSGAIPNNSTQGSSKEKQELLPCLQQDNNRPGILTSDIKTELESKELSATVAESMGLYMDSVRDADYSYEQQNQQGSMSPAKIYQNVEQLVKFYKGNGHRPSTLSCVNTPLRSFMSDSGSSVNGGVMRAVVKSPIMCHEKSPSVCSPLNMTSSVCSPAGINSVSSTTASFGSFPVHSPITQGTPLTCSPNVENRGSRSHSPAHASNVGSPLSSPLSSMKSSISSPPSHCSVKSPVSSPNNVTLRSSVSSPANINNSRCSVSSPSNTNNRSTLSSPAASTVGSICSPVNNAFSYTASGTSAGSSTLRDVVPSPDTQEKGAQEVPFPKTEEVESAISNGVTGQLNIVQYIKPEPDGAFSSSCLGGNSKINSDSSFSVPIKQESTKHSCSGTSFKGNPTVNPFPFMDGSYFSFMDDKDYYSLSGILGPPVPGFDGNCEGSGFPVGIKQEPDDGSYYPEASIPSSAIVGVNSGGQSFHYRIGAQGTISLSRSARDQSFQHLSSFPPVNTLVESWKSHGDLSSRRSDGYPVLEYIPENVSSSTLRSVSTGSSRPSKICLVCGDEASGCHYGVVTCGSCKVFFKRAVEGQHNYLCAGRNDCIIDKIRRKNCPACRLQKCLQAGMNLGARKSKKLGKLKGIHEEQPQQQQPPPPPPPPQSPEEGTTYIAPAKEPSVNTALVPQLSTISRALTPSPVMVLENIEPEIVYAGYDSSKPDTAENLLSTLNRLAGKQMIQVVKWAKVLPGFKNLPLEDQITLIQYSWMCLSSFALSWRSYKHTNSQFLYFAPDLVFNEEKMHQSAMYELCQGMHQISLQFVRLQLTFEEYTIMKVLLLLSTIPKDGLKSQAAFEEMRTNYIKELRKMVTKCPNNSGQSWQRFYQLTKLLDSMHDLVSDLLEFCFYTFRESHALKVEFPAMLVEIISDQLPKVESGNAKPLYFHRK
How it was run: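 MDCK reporter cells expressing human mineralocorticoid receptor, transiently carrying luciferase under a steroid hormone-responsive promoter.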

[5] = PC-3, read-out: Androgen receptor Agonism efficacy
[6] = PC-3, read-out: Androgen receptor Antagonism efficacy

Structure (SMILES) | IC50 [1] [nM] | Androgen receptor Competition factor [2] | EC50 [3] [nM] | Emax [3, 5] [%] | Emax [3, 6] [%] | IC50 [4] [nM] | Emax [4] [%] | IC50 [3] [nM]
C[C@@H]1CC2=CC(=O)CC[C@@H]2[C@H]2CC[C@@]3(C)[C@@H]([C@@H]4C[C@@H]4[C@@]34C=CC(=O)O4)[C@@H]21 [Example 23A, 17β-Hydroxy-7α-methyl-15β,16β-methylene-19-nor-17α-pregna-4,20(2)-dien-3-one-21-carboxylic acid γ-lactone] | 81 | 4.2 | 19 | 63.6 | 5 | 290 | 105 | 
CC[C@@H]1CC2=CC(=O)CC[C@@H]2[C@H]2CC[C@@]3(C)[C@@H]([C@@H]4C[C@@H]4[C@@]34C=CC(=O)O4)[C@H]12 [Example 24A, 7α-Ethyl-17β-hydroxy-15β,16β-methylene-19-nor-17α-pregna-4,20(Z)-dien-3-one-21-carboxylic acid γ-lactone] | 160 | 8.1 | 52 | 36.8 | 22.5 | 160 | 81.1 | 11
C=C[C@@H]1CC2=CC(=O)CC[C@@H]2[C@H]2CC[C@@]3(C)[C@@H]([C@@H]4C[C@@H]4[C@@]34C=CC(=O)O4)[C@@H]21 [Example 25A, 17β-Hydroxy-15β,16β-methylene-7α-vinyl-19-nor-17α-pregna-4,20(Z)-dien-3-one-21-carboxylic acid γ-lactone] | 37 | 1.4 | 1.83 | 73.3 | 5 | 910 | 84.1 | 
C[C@]12CC[C@H]3[C@@H](CCC4=C(Cl)C(=O)CC[C@@H]43)[C@@H]1[C@@H]1C[C@@H]1[C@@]21C=CC(=O)O1 [Example 27, 4-Chloro-17β-hydroxy-15β,16β-methylene-19-nor-17α-pregna-4,20(Z)-dien-3-one-21-carboxylic acid γ-lactone] | 810 | 36.4 | 69.5 | 66.9 | 5 | 1000 | 5 | 
